# Patent publication US20030109549A1 (published 2003)
# Where a name gives a salt, the structure may show the parent alone.
row,Structure (SMILES),melting point
1,c1ccc(N2CCN(c3nc4ccccc4n3C3CCN(C4(c5ccccc5)CCCCCC4)CC3)CC2)cc1 (as salt: HCl),188 to 192 °C
2,c1ccc(C2(N3CCC(n4c(NC5CCNCC5)nc5ccccc54)CC3)CCCCCC2)cc1 (as salt: HCl),231 to 235 °C
3,NCCOc1nc2ccccc2n1C1CCN(C2(c3ccccc3)CCCCCC2)CC1 (as salt: HCl),180 to 184 °C
4,c1ccc(C2(N3CCC(n4c(N5CCCC5)nc5ccccc54)CC3)CCCCCC2)cc1 (as salt: HCl),178 to 181 °C
5,CSc1nc2ccccc2n1C1CCN(C2(c3ccccc3)CCCCCC2)CC1 (as salt: HCl),168 to 171 °C
6,CNC(C)Nc1nc2ccccc2n1C1CCN(C2(c3ccccc3)CCCCCC2)CC1 (stereo not shown) (as salt: HCl),173 to 177 °C
7,CS(=O)(=O)c1nc2ccccc2n1C1CCN(C2(c3ccccc3)CCCCCC2)CC1 (as salt: HCl),155 to 158 °C
8,OC1CCN(c2nc3ccccc3n2C2CCN(C3(c4ccccc4)CCCCCC3)CC2)CC1 (as salt: HCl),208 to 212 °C
9,N=C(N)NCCNc1nc2ccccc2n1C1CCN(C2(c3ccccc3)CCCCCC2)CC1 (as salt: salt),215 to 218 °C
10,NCC(=O)Nc1nc2ccccc2n1C1CCN(C2(c3ccccc3)CCCCCCC2)CC1 (as salt: HCl),217 to 221 °C
11,c1ccc(CN2CCN(c3nc4ccccc4n3C3CCN(C4(c5ccccc5)CCCCCC4)CC3)CC2)cc1 (as salt: HCl),139 to 143 °C
12,c1ccc(C2(N3CCC(n4c(N5CCOCC5)nc5ccccc54)CC3)CCCCCC2)cc1 (as salt: HCl),172 to 176 °C
13,c1ccc(C2(N3CCC(n4c(N5CCCCC5)nc5ccccc54)CC3)CCCCCC2)cc1 (as salt: HCl),177 to 180 °C
14,Clc1nc2ccccc2n1C1CCN(C2(c3ccccc3)CCCCCC2)CC1 (as salt: HCl),153 to 156 °C
15,ON=C1CCN(c2nc3ccccc3n2C2CCN(C3(c4ccccc4)CCCCCC3)CC2)CC1 (as salt: fumaric acid salt),201 to 204 °C
16,NCCNc1nc2ccccc2n1C1CCN(C2(c3ccccc3)CCCCCC2)CC1 (as salt: HCl),228 to 232 °C
17,c1ccc(C2(N3CCC(n4c(N5CCNCC5)nc5ccccc54)CC3)CCCCCC2)cc1 (as salt: HCl),159 to 163 °C
18,CN(C)CCNc1nc2ccccc2n1C1CCN(C2(c3ccccc3)CCCCCC2)CC1 (as salt: HCl),188 to 192 °C
19,O=C1CCN(c2nc3ccccc3n2C2CCN(C3(c4ccccc4)CCCCCC3)CC2)CC1 (as salt: HCl),168 to 172 °C
20,NC1CCN(c2nc3ccccc3n2C2CCN(C3(c4ccccc4)CCCCCC3)CC2)CC1 (as salt: HCl),225 to 228 °C
21,c1ccc(C2(N3CCC(n4c(OC5CCNCC5)nc5ccccc54)CC3)CCCCCC2)cc1 (as salt: HCl),114 to 118 °C
22,CCCCCNc1nc2ccccc2n1C1CCN(C2(c3ccccc3)CCCCCC2)CC1 (as salt: HCl),156 to 159 °C
